Measurements from patent publication US20240336611A1 (Insilico Medicine IP Limited, priority 2021, published 2024).
pIC50: −log10 of the molar value.

What was measured:
[1] = molecular target: T1, TNIK kinase [amino acid sequence (1-367), Invitrogen] (Homo sapiens, UniProt Q9UKE5); assay: TNIK kinase inhibition assay (Z-lyte FRET-peptide); format: biochemical; settings: 0.625 nM TNIK kinase, 2 μM Ser/Thr 7 peptide, 64 μM ATP, one hour at room temperature
T1 construct: purchased Invitrogen

[2] = Metabolic stability in human liver microsomes; format: in vitro ADME; settings: LM Clint (intrinsic clearance); 1 μM test compound, 0.5 mg protein/mL microsome, 37° C., up to 60 min

T1 sequence (Q9UKE5 1-367): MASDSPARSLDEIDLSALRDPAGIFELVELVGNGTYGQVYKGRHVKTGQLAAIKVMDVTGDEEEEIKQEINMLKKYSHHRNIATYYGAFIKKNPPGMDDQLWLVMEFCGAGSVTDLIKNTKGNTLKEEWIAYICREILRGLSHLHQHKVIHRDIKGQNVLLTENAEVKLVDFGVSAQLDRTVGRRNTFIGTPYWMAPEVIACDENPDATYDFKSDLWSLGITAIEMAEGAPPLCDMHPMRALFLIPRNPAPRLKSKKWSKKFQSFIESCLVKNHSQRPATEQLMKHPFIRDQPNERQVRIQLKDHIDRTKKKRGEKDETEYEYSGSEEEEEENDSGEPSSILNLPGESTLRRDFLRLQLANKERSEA

| pIC50 [1] | Human Liver Microsome (μM/min/mg) [2] | Structure (SMILES) |
| --- | --- | --- |
| 7.92 to 9.00 | + (>100 μM/min/mg as +) | CC(C)n1cnc(-c2ccc(F)cc2)c1-c1nc(C(=O)Nc2ccc(N3CC(N(C)C)C3)cn2)cs1 [Compound 64, N-(5-(3-(dimethylamino)azetidin-1-yl)pyridin-2-yl)-2-(4-(4-fluorophenyl)-1-isopropyl-1H-imidazol-5-yl)thiazole-4-carboxamide] |
| 7.92 to 9.00 | ++ (10-100 μM/min/mg as ++) | CC(C)c1onc(-c2ccc(F)cc2)c1-c1nc(C(=O)Nc2ccc(C3CN(C)C3)cn2)cs1 [Compound 90, 2-(3-(4-fluorophenyl)-5-isopropylisoxazol-4-yl)-N-(5-(1-methylazetidin-3-yl)pyridin-2-yl)thiazole-4-carboxamide] |
| 7.92 to 9.00 | ++ (10-100 μM/min/mg as ++) | CC(C)n1cnc(-c2ccc(F)cc2)c1-c1nc(C(=O)Nc2ccc(N3CCP(C)(=O)CC3)cn2)cs1 [Compound 85, 2-(4-(4-fluorophenyl)-1-isopropyl-1H-imidazol-5-yl)-N-(5-(4-methyl-4-oxido-1,4-azaphosphinan-1-yl)pyridin-2-yl)thiazole-4-carboxamide] |
| 7.92 to 9.00 | ++ (10-100 μM/min/mg as ++) | CC(C)n1cnc(-c2ccc(F)cc2)c1-c1nc(C(=O)Nc2ccc(C3COC3)cc2F)c[nH]1 [Compound 55, N-(2-fluoro-4-(oxetan-3-yl)phenyl)-5′-(4-fluorophenyl)-3′-isopropyl-1H,3′H-[2,4′-biimidazole]-4-carboxamide] |
| 7.92 to 9.00 | ++ (10-100 μM/min/mg as ++) | [2H]C([2H])([2H])N1CC(c2ccc(NC(=O)c3csc(-c4c(-c5ccc(F)cc5)ncn4C(C)C)n3)nc2)C1 [Compound 108, 2-[5-(4-fluorophenyl)-3-isopropyl-imidazol-4-yl]-N-[5-[1-(trideuteriomethyl)azetidin-3-yl]-2-pyridyl]thiazole-4-carboxamide] |
| 7.92 to 9.00 | ++ (10-100 μM/min/mg as ++) | CC(C)n1cnc(-c2ccc(F)cc2)c1-c1nc(C(=O)Nc2ccc(C3CCN(C)CC3)cn2)cs1 [Compound 9, 2-(4-(4-fluorophenyl)-1-isopropyl-1H-imidazol-5-yl)-N-(5-(1-methylpiperidin-4-yl)pyridin-2-yl)thiazole-4-carboxamide] |

Continued, compound first:

| Structure (SMILES) | pIC50 [1] | Human Liver Microsome (μM/min/mg) [2] |
| --- | --- | --- |
| CN1[C@@H]2CC[C@H]1CN(c1ccc(NC(=O)c3csc(-c4c(-c5ccc(F)cc5)ncn4C4COC4)n3)nc1)C2 [Compound 51, 2-(4-(4-fluorophenyl)-1-(oxetan-3-yl)-1H-imidazol-5-yl)-N-(5-((1R,5S)-8-methyl-3,8-diazabicyclo[3.2.1]octan-3-yl)pyridin-2-yl)thiazole-4-carboxamide] | 7.92 to 9.00 | ++ (10-100 μM/min/mg as ++) |
| CC(C)n1cnc(-c2ccc(F)cc2)c1-c1nc(C(=O)Nc2ccc(C3COC3)cn2)cs1 [Compound 57, 2-(4-(4-fluorophenyl)-1-isopropyl-1H-imidazol-5-yl)-N-(5-(oxetan-3-yl)pyridin-2-yl)thiazole-4-carboxamide] | 7.92 to 9.00 | + (>100 μM/min/mg as +) |
| CC(C)n1cnc(-c2ccc(F)cc2)c1-c1nc(C(=O)Nc2ccc(N3CC4CC(C3)N4C)cc2)c[nH]1 [Compound 23, 5′-(4-fluorophenyl)-3′-isopropyl-N-(4-(6-methyl-3,6-diazabicyclo[3.1.1]heptan-3-yl)phenyl)-1H,3′H-[2,4′-biimidazole]-4-carboxamide] | 7.92 to 9.00 | ++ (10-100 μM/min/mg as ++) |
| CC(C)n1cnc(-c2ccc(F)cc2)c1-c1nc(C(=O)Nc2ccc(C3COC3)cn2)c[nH]1 [Compound 54, 5′-(4-fluorophenyl)-3′-isopropyl-N-(5-(oxetan-3-yl)pyridin-2-yl)-1H,3′H-[2,4′-biimidazole]-4-carboxamide] | 7.92 to 9.00 | ++ (10-100 μM/min/mg as ++) |
| [2H]C([2H])([2H])N1CCN(c2ccc(NC(=O)c3c[nH]c(-c4c(-c5ccc(F)cc5)ncn4C([2H])(C)C)n3)nc2)CC1 [Compound 125, 2-[3-(1-deuterio-1-methyl-ethyl)-5-(4-fluorophenyl)imidazol-4-yl]-N-[5-[4-(trideuteriomethyl)piperazin-1-yl]-2-pyridyl]-1H-imidazole-4-carboxamide] | 7.92 to 9.00 | ++ (10-100 μM/min/mg as ++) |
